What was measured:
[1] = target: T1, galectin-9N (N-terminal domain) (Homo sapiens, UniProt O00182); experiment: Competitive fluorescence polarization assay, galectin-9N; format: binding; conditions: mean ± SEM of n = 4–8
T1 construct: galectins (N = N-terminal domain, C = C-terminal domain); made in house
Description: (§1) 1. Competitive fluorescence polarization experiments:
(§2) Human galectins -1, -3, -4N, -4C, -7, -8N, -9N, and -9C were expressed and purified as previously described 30,41. Fluorescence polarisation experiments were performed using the PHERAstar FS plat e reader (software version 2.10 R3), and the fluorescence anisotropy of fluorescein tagged probes was measured by excitation at 485 nm and emission at 520 nm. The specific conditions for galectins -1, -3, -4N, -4C, -7, -8N, -9N, and -9C were kept as report ed30,41,42. The synthesised compounds were dissolved in pure DMSO at 20 mM concentration and diluted in PBS to 3-6 different concentrations, and each concentration was tested in duplicate. The highest inhibitor concentrations tested were 1.5 mM. The

[2] = target: T2, galectin-3 (Homo sapiens, UniProt P17931); experiment: Competitive fluorescence polarization assay, galectin-3; format: binding; conditions: mean ± SEM of n = 4–8
T2 construct: made in house
T2 sequence (P17931 whole entry): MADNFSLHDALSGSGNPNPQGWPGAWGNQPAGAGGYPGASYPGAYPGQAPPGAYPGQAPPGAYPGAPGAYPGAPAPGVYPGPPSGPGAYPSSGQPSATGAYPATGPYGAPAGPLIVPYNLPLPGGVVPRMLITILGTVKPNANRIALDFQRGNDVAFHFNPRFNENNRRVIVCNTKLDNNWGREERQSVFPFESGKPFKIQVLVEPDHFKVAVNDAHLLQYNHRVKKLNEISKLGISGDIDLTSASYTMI
Description: as §1, §2

[3] = target: T3, galectin-4C (C-terminal domain) (Homo sapiens, UniProt P56470); experiment: Competitive fluorescence polarization assay, galectin-4C; format: binding; conditions: mean ± SEM of n = 4–8
T3 construct: galectins (N = N-terminal domain, C = C-terminal domain); made in house
T3 sequence (P56470 194-323 limits assumed): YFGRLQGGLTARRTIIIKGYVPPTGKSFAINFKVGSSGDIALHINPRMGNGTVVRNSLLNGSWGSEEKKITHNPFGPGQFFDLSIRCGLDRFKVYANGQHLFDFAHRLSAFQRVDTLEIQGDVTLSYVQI
Description: as §1, §2

[4] = target: T4, galectin-4N (N-terminal domain) (Homo sapiens, UniProt P56470); experiment: Competitive fluorescence polarization assay, galectin-4N; format: binding; conditions: mean ± SEM of n = 4–8
T4 construct: galectins (N = N-terminal domain, C = C-terminal domain); made in house
T4 sequence (P56470 19-150 limits assumed): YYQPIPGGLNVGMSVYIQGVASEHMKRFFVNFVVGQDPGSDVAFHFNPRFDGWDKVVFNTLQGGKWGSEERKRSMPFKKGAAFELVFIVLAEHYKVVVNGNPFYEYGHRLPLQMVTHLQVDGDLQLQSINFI
Description: as §1, §2

[5] = target: T5, galectin-8C (C-terminal domain) (Homo sapiens, UniProt O00214); experiment: Competitive fluorescence polarization assay, galectin-8C; format: binding; conditions: mean ± SEM of n = 4–8
T5 construct: galectins (N = N-terminal domain, C = C-terminal domain)
T5 sequence (O00214 187-317 limits assumed): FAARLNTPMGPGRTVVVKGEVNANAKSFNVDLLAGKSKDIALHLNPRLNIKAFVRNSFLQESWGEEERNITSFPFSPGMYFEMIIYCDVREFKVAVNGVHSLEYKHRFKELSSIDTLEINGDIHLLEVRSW

[6] = target: T6, galectin-8N (galectin-8 N-terminal domain) (Homo sapiens, UniProt O00214); experiment: Competitive fluorescence polarization assay, galectin-8N; format: binding; conditions: mean ± SEM of n = 4–8
T6 construct: selective ligand for the galectin-8 N-terminal domain (galectin-8N); made in house
T6 sequence (O00214 19-152 limits assumed): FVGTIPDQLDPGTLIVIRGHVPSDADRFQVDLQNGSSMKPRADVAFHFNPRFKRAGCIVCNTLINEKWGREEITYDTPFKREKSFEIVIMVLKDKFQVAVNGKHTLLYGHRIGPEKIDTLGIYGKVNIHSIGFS
Description: All synthesized D-galactal derivatives had higher binding affinities for galectin-8N than D-galactal 3.
as §1, §2

[7] = target: T7, galectin-1 (Homo sapiens, UniProt P09382); experiment: Competitive fluorescence polarization assay, galectin-1; format: binding; conditions: mean ± SEM of n = 4–8
T7 construct: made in house
T7 sequence (P09382 whole entry): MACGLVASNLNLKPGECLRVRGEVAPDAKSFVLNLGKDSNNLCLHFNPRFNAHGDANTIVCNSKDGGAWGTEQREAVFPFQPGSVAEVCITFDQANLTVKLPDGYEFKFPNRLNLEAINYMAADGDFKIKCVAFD
Description: as §1, §2

[8] = target: T8, galectin-9C (C-terminal domain) (Homo sapiens, UniProt O00182); experiment: Competitive fluorescence polarization assay, galectin-9C; format: binding; conditions: mean ± SEM of n = 4–8
T8 construct: galectins (N = N-terminal domain, C = C-terminal domain); made in house
T8 sequence (O00182 227-355 limits assumed): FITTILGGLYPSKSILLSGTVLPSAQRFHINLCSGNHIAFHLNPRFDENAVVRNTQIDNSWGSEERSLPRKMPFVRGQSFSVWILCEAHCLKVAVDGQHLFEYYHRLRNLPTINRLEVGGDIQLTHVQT
Description: as §1, §2

[9] = system: K562 cancer cell line; experiment: MTS metabolic activity (cytotoxicity) assay, K562; format: cell-based; conditions: concentrations 1 to 100 μM, 24 hours
Description: (§3) We have investigated the cytotoxicity of the compounds 1, 6a, and 6c via a (3-(4,5-dimethylthiazol-2-yl)-5-(3-carboxymethoxyphenyl)-2-(4-sulfophenyl)-2H-tetrazolium) (MTS) assay in K562 and MDA-MB-231 cancer cell lines to establish the direct antitumor activity of compounds, as well as human peripheral blood mononuclear cells (PBMCs), to evaluate their safety.
(§4) Metabolic activity assay:
(§5) The metabolic activities of the cell lines were determined using the CellTiter 96 Aqueous One Solution cell proliferation assay (MTS Reagents, Promega, Madison, WI, USA), according to the manufacturer instructions. Briefly, the cells were treated with the selected compounds in 0.1% dimethyl sulfoxide (DMSO; vehicle), 0.1% DMSO (control vehicle), or medium (control) and seeded at a cell density of 5,500 cells/well (MDA-MB-231 cells) or 4 x 10^4 cells/well (K562 cells), 7000 cells/well (HepG2 cells) or 1 x 10^5 cells/well (human PBMCs) in duplicates (MDA-MB-231, K562, and […]) or triplicates for HepG2 cells (100 µL), in sterile 96-well plates. For the MDA-MB-231 and HepG2, the cells were left to adhere overnight before adding the compounds. The plates were then incubated for 24 hours (48 hours for HepG2), after which 15 µL of MTS reagent was added to each well. After 30-90 minute of incubation, the absorbance was measured at 492 nm using a microplate reader (Synergy HTX Multi-Mode; BioTek Instruments, Inc., VT, USA). […]
(§6) Bead Array Human inflammatory cytokine Kit (content: IL-1, IL-6, IL-8, IL-10, IL-12p). The flow cytometric analyses were performed on an Attune NxT flow cytometer (Thermo Fisher Scientific, […]
(§7) Data are represented as means ± standard deviation (SD) from three representative independent experiments.
(§8) All experiments were performed at least twice, with average values expressed as means ± SD. All data were analyzed with the statistical software GraphPad Prism 8.0 (GraphPad Software, Inc., CA, USA). by one-way ANOVA followed with Dunnett’s multiple compar ison test. Differences were considered non-significant for p > 0.05, and significant (*) for p < 0.05. […]

[10] = target: T9, galectin-7 (Homo sapiens, UniProt P47929); experiment: Competitive fluorescence polarization assay, galectin-7; format: binding; conditions: mean ± SEM of n = 4–8
T9 construct: made in house
T9 sequence (P47929 whole entry): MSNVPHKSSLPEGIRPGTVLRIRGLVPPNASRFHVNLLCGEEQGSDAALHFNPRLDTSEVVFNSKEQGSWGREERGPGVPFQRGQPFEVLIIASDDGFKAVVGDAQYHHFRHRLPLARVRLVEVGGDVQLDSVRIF
Description: as §1, §2

[11] = target: T10, galectin-2 (Homo sapiens, UniProt P05162); experiment: Competitive fluorescence polarization assay, galectin-2; format: binding; conditions: mean ± SEM of n = 4–8
T10 sequence (P05162 1-132): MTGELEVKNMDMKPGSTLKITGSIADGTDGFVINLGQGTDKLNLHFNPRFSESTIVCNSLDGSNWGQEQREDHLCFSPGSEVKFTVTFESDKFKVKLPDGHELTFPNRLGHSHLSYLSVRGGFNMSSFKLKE

[12] = system: MDA-MB-231 cancer cell line; experiment: MTS metabolic activity (cytotoxicity) assay, MDA-MB-231; format: cell-based, human; conditions: concentrations 1 to 100 μM, 24 hours
Description: as §3, §4, §5, §6, §7, §8

[13] = system: human peripheral blood mononuclear cells (PBMCs); experiment: MTS metabolic activity (cytotoxicity) assay, PBMCs; format: cell-based; conditions: concentrations up to 100 μM, 24 hours
Description: as §3, §4, §5, §6, §7, §8

T1 sequence (O00182 17-148 limits assumed): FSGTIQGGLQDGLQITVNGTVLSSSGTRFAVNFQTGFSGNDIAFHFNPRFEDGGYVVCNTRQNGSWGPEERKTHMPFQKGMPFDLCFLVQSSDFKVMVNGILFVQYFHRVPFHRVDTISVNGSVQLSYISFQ

| SMILES | Kd [1] | Kd [2] | Kd [3] | Kd [4] | Kd [5] | Kd [6] | Kd [7] | Kd [8] | Kd [10] | Kd [11] | cell viability (MTS), K562 [9] | cell viability (MTS), MDA-MB-231 [12] | direct cytotoxicity (MTS), PBMCs [13] |
| --- | --- | --- | --- | --- | --- | --- | --- | --- | --- | --- | --- | --- | --- |
| COC(=O)c1ccc2nc(CO[C@@H]3C=CO[C@H](CO)[C@@H]3O)n(C)c2c1 [5a] | > 1500 µM | 1300 ± 130 µM | 2600 ± 230 µM | 1700 ± 60 µM | 3000 ± 380 µM | 400 ± 34 µM | 2200 ± 138 µM |  |  |  |  |  |  |
| CCOC(=O)c1ccc2c(c1)nc(CO[C@@H]1C=CO[C@H](CO)[C@@H]1O)n2C [5b] |  | 680 ± 37 µM |  |  | 1500 ± 180 µM | 690 ± 53 µM | 840 ± 20 µM |  |  |  |  |  |  |
| COC(=O)c1ccc2nc(CO[C@@H]3C=CO[C@H](CO)[C@@H]3O)[nH]c2c1 [5c] | > 1500 µM | 1200 ± 287 µM | 2500 µM | 3200 µM | 3000 ± 300 µM | 180 ± 19 µM | > 1500 µM | > 1500 µM |  |  |  |  |  |

Continued, in another order:

| Kd [1] | Kd [2] | Kd [3] | Kd [4] | Kd [5] | Kd [6] | Kd [7] | Kd [8] | Kd [10] | Kd [11] | SMILES | cell viability (MTS), K562 [9] | cell viability (MTS), MDA-MB-231 [12] | direct cytotoxicity (MTS), PBMCs [13] |
| --- | --- | --- | --- | --- | --- | --- | --- | --- | --- | --- | --- | --- | --- |
| > 1500 µM | 770 ± 129 µM | 2500 ± 300 µM | 3600 µM | 3000 ± 30 µM | 810 ± 54 µM | 1100 ± 87 µM | > 1500 µM |  |  | Cn1c(CO[C@@H]2C=CO[C@H](CO)[C@@H]2O)nc2cc(C(=O)O)ccc21 [6b] |  |  |  |
| > 1500 µM | 550 ± 32 µM | 1900 ± 400 µM | 1400 ± 230 µM |  | 46 ± 4 µM | > 1500 µM | 2500 µM | > 1500 µM | 990 ± 170 µM | O=C(O)c1ccc2nc(CO[C@@H]3C=CO[C@H](CO)[C@@H]3O)[nH]c2c1 [6c] | None of the compounds decreased the viability | None of the compounds decreased the viability | lack of direct cytotoxicity |

Reference: publication PMC8592027, “Structure-Guided Design of D-Galactal Derivatives with High Affinity and Selectivity for the Galectin-8 N-Terminal Domain” (ACS Medicinal Chemistry Letters, 2021)
